Read-outs that look alike come from different tables or passages of the source.
System: T1, Bacillus GDH
T1 construct: commercial enzyme from GDH activity colorimetric assay kit (Biovision)
Assay: WST-8/1-mPMS formazan assay, […] nm, Michaelis-Menten fit
Assay type: biochemical
Details: 20 mM Tris-HCl pH 9.0, 37 °C

| Km (1 mM NAD+, read-out: KM (mM) / Glucose) | Km (250 mM glucose, read-out: KM (mM) / NAD^+) | Structure (SMILES) |
| --- | --- | --- |
| 17.1 ± 2 mM |  | OC[C@H]1OC(O)[C@H](O)[C@@H](O)[C@@H]1O (stereo partly drawn) [D-(+)-glucose] |
|  | 0.271 ± 0.027 mM | NC(=O)c1ccc[n+]([C@@H]2O[C@H](COP(=O)(O)OP(=O)(O)OC[C@H]3O[C@@H](n4cnc5c(N)ncnc54)[C@H](O)[C@@H]3O)[C@@H](O)[C@H]2O)c1 [NAD^+] |

— article PMC6454709, “Application of WST-8 based colorimetric NAD(P)H detection for quantitative dehydrogenase assays” (BMC Biochemistry, 2019)
